Several values for one entry are separate records, joined by “and”; a condition that tells them apart may be missing. Equal entries are not always repeated.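 Grown in 96-well plates, cells were treated for 48 hours with each compound at five concentrations. Insufficient inhibition: endpoint recorded as highest concentration tested. Here, GI50 denotes the concentration required for 50% inhibition of growth. At the TGI there is no net growth.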 *1 amine or outer side, *2 acyl side, *3 side chain or, on linkers, in order; H or OH if unused. Where a SMILES comes first, the peptide text is derived from it. Bridges are numbered along the chain shown (N, C = ends). [ ]: non-standard residue; d: D form. The star is where a group is joined. ξ: configuration not given here. Phe(3,5-F2) = N[C@@H](Cc1cc(F)cc(F)c1)C(=O)O; ξThr(3S) = C[C@H](O[*:3])C(N[*:1])C(=O)[*:2]; Pro(4R-Me) = C[C@H]1CN[C@H](C(=O)O)C1; Pip = O=C(O)[C@@H]1CCCCN1; X1 = Cc1ccc(N*)c(F)c1; CO = O=C([*:1])[*:2]
Assays:
Test in all cases: NCI-60 cell line screen, 48 h
COLO 205 colon = test system: COLO 205 colon
CAKI-1 renal = test system: CAKI-1 renal
SNB-19 CNS = test system: SNB-19 CNS
HCC-2998 colon = test system: HCC-2998 colon
SK-MEL-28 melanoma = test system: SK-MEL-28 melanoma
UACC-257 melanoma = test system: UACC-257 melanoma
SK-MEL-2 melanoma = test system: SK-MEL-2 melanoma
SR leukemia = test system: SR leukemia
ACHN renal = test system: ACHN renal
HOP-62 NSCLC = test system: HOP-62 NSCLC
BT-549 breast = test system: BT-549 breast
TK-10 renal = test system: TK-10 renal
RPMI-8226 leukemia = test system: RPMI-8226 leukemia
CCRF-CEM leukemia = test system: CCRF-CEM leukemia
OVCAR-8 ovarian = test system: OVCAR-8 ovarian
U251 CNS = test system: U251 CNS
UACC-62 melanoma = test system: UACC-62 melanoma
MCF7 breast = test system: MCF7 breast
OVCAR-4 ovarian = test system: OVCAR-4 ovarian
SN12C renal = test system: SN12C renal
SK-OV-3 ovarian = test system: SK-OV-3 ovarian
HT29 colon = test system: HT29 colon
786-0 renal = test system: 786-0 renal
K-562 leukemia = test system: K-562 leukemia
IGROV1 ovarian = test system: IGROV1 ovarian
M14 melanoma = test system: M14 melanoma
HS 578T breast = test system: HS 578T breast
MALME-3M melanoma = test system: MALME-3M melanoma
UO-31 renal = test system: UO-31 renal
SF-539 CNS = test system: SF-539 CNS
HCT-15 colon = test system: HCT-15 colon
PC-3 prostate = test system: PC-3 prostate
A498 renal = test system: A498 renal
HOP-92 NSCLC = test system: HOP-92 NSCLC
SF-295 CNS = test system: SF-295 CNS
EKVX NSCLC = test system: EKVX NSCLC
MDA-MB-435 = test system: MDA-MB-435
A549 NSCLC = test system: A549 NSCLC
NCI-H522 lung = test system: NCI-H522 lung
NCI-H460 lung = test system: NCI-H460 lung
MOLT-4 leukemia = test system: MOLT-4 leukemia
HCT-116 colon = test system: HCT-116 colon
OVCAR-5 ovarian = test system: OVCAR-5 ovarian
NCI/ADR-RES ovarian = test system: NCI/ADR-RES ovarian
MDA-MB-231 breast = test system: MDA-MB-231 breast
SW-620 colon = test system: SW-620 colon
SF-268 CNS = test system: SF-268 CNS
DU-145 prostate = test system: DU-145 prostate
HL-60(TB) leukemia = test system: HL-60(TB) leukemia
KM12 colon = test system: KM12 colon
SNB-75 CNS = test system: SNB-75 CNS
RXF 393 renal = test system: RXF 393 renal
T-47D breast = test system: T-47D breast
NCI-H226 lung = test system: NCI-H226 lung
OVCAR-3 ovarian = test system: OVCAR-3 ovarian
NCI-H23 lung = test system: NCI-H23 lung
LOX IMVI melanoma = test system: LOX IMVI melanoma
SK-MEL-5 melanoma = test system: SK-MEL-5 melanoma

With Cc1ccc(NC(=O)N[C@@H](Cc2cc(F)cc(F)c2)C(=O)NC2C(=O)N3CCC[C@H]3C(=O)N3CCCC[C@H]3C(=O)N[C@@H](C)C(=O)N3C[C@H](C)C[C@H]3C(=O)O[C@H]2C)c(F)c1 (stereo partly drawn) ({X1-CO}-[Phe(3,5-F2)][ξThr(3S)]P[Pip]A[Pro(4R-Me)]; ester 2-C) the GI50 (COLO 205 colon) was 124 nM and 156 nM, the TGI (COLO 205 colon) was 338 nM and 496 nM and the GI50 (CAKI-1 renal) was 210 nM and 288 nM. The TGI (CAKI-1 renal) was 50000 nM and > 100000 nM, the GI50 (SNB-19 CNS) was 208 nM and 187 nM and the TGI (SNB-19 CNS) was 50000 nM and > 100000 nM. For the same compound, the GI50 (HCC-2998 colon) was 255 nM and 390 nM, the TGI (HCC-2998 colon) was 9170 nM and 10800 nM and the GI50 (SK-MEL-28 melanoma) was 467 nM and 709 nM. The TGI (SK-MEL-28 melanoma) was 13800 nM and 18400 nM, the GI50 (UACC-257 melanoma) was 191 nM and 316 nM and the TGI (UACC-257 melanoma) was 7580 nM and 7520 nM. For the same compound, the GI50 (SK-MEL-2 melanoma) was 198 nM and 164 nM, the TGI (SK-MEL-2 melanoma) was 7580 nM and 921 nM and the GI50 (SR leukemia) was 334 nM and 626 nM. For the same compound, the TGI (SR leukemia) was 12100 nM and 21600 nM, the GI50 (ACHN renal) was 321 nM and 528 nM and the TGI (ACHN renal) was 50000 nM and > 100000 nM. The GI50 (HOP-62 NSCLC) was 235 nM and 322 nM, the TGI (HOP-62 NSCLC) was 50000 nM and 46300 nM and the GI50 (BT-549 breast) was 283 nM and 260 nM. For the same compound, the TGI (BT-549 breast) was 12000 nM and 11800 nM, the GI50 (TK-10 renal) was 385 nM and 791 nM and the TGI (TK-10 renal) was 50000 nM and 42700 nM. For the same compound, the GI50 (RPMI-8226 leukemia) was 119 nM and 38 nM, the TGI (RPMI-8226 leukemia) was 6250 nM and 1300 nM and the GI50 (CCRF-CEM leukemia) was 236 nM and 127 nM. The TGI (CCRF-CEM leukemia) was 50000 nM and 30100 nM, the GI50 (OVCAR-8 ovarian) was 194 nM and 64.6 nM and the TGI (OVCAR-8 ovarian) was 50000 nM and > 100000 nM. For the same compound, the GI50 (U251 CNS) was 210 nM and 336 nM, the TGI (U251 CNS) was 50000 nM and > 100000 nM and the GI50 (UACC-62 melanoma) was 247 nM and 451 nM. The TGI (UACC-62 melanoma) was 10700 nM and 19300 nM, the GI50 (MCF7 breast) was 206 nM and 195 nM and the TGI (MCF7 breast) was 50000 nM and 53500 nM. The GI50 (OVCAR-4 ovarian) was 268 nM and 98.9 nM, the TGI (OVCAR-4 ovarian) was 50000 nM and > 100000 nM and the GI50 (SN12C renal) was 171 nM and 303 nM. The TGI (SN12C renal) was 50000 nM and > 100000 nM, the GI50 (SK-OV-3 ovarian) was 225 nM and 360 nM and the TGI (SK-OV-3 ovarian) was 17400 nM and 7040 nM. The GI50 (HT29 colon) was 276 nM and 302 nM, the TGI (HT29 colon) was 10200 nM and 10100 nM and the GI50 (786-0 renal) was 422 nM and 633 nM. The TGI (786-0 renal) was 50000 nM and > 100000 nM, the GI50 (K-562 leukemia) was 134 nM and 43.7 nM and the TGI (K-562 leukemia) was 50000 nM and > 100000 nM. The GI50 (IGROV1 ovarian) was 2470 nM and 828 nM, the TGI (IGROV1 ovarian) was 40400 nM and > 100000 nM and the GI50 (M14 melanoma) was 297 nM and 245 nM. For the same compound, the TGI (M14 melanoma) was 9860 nM and 16400 nM, the GI50 (HS 578T breast) was 394 nM and the TGI (HS 578T breast) was 50000 nM and 8560 nM. For the same compound, the GI50 (MALME-3M melanoma) was 410 nM and 561 nM, the TGI (MALME-3M melanoma) was 17100 nM and 19100 nM and the GI50 (UO-31 renal) was 585 nM and 456 nM. The TGI (UO-31 renal) was 50000 nM and > 100000 nM, the GI50 (SF-539 CNS) was 696 nM and 709 nM and the TGI (SF-539 CNS) was 11100 nM and 16900 nM. For the same compound, the GI50 (HCT-15 colon) was 231 nM and 357 nM, the TGI (HCT-15 colon) was 10000 nM and 14900 nM and the GI50 (PC-3 prostate) was 181 nM and 111 nM. For the same compound, the TGI (PC-3 prostate) was 50000 nM and > 100000 nM, the GI50 (A498 renal) was 5140 nM and 950 nM and the TGI (A498 renal) was 41200 nM and 10200 nM. For the same compound, the GI50 (HOP-92 NSCLC) was 163 nM and 251 nM, the TGI (HOP-92 NSCLC) was 9010 nM and 3050 nM and the GI50 (SF-295 CNS) was 200 nM and 240 nM. For the same compound, the TGI (SF-295 CNS) was 11500 nM and 3580 nM, the GI50 (EKVX NSCLC) was 252 nM and 377 nM and the TGI (EKVX NSCLC) was 50000 nM and > 100000 nM. For the same compound, the GI50 (MDA-MB-435) was 230 nM and 117 nM, the TGI (MDA-MB-435) was 12300 nM and 14600 nM and the GI50 (A549 NSCLC) was 223 nM and 640 nM. For the same compound, the TGI (A549 NSCLC) was 50000 nM and > 100000 nM, the GI50 (NCI-H522 lung) was 211 nM and 119 nM and the TGI (NCI-H522 lung) was 8500 nM and 10700 nM. The GI50 (NCI-H460 lung) was 220 nM and 222 nM, the TGI (NCI-H460 lung) was 50000 nM and 21000 nM and the GI50 (MOLT-4 leukemia) was 545 nM and 669 nM. For the same compound, the TGI (MOLT-4 leukemia) was 25800 nM and 22900 nM, the GI50 (HCT-116 colon) was 266 nM and 65.3 nM and the TGI (HCT-116 colon) was 7470 nM and 11100 nM. The GI50 (OVCAR-5 ovarian) was 275 nM and 506 nM, the TGI (OVCAR-5 ovarian) was 9740 nM and 16000 nM and the GI50 (NCI/ADR-RES ovarian) was 1730 nM and 1700 nM. The TGI (NCI/ADR-RES ovarian) was 50000 nM and > 100000 nM, the GI50 (MDA-MB-231 breast) was 166 nM and 279 nM and the TGI (MDA-MB-231 breast) was 1840 nM and 12800 nM. For the same compound, the GI50 (SW-620 colon) was 433 nM and 483 nM, the TGI (SW-620 colon) was 50000 nM and > 100000 nM and the GI50 (SF-268 CNS) was 393 nM and 446 nM. The TGI (SF-268 CNS) was 50000 nM and 48600 nM, the GI50 (DU-145 prostate) was 349 nM and 147 nM and the TGI (DU-145 prostate) was 50000 nM and > 100000 nM. For the same compound, the GI50 (HL-60(TB) leukemia) was 213 nM and 47.4 nM, the TGI (HL-60(TB) leukemia) was 8610 nM and 2050 nM and the GI50 (KM12 colon) was 533 nM and 384 nM. For the same compound, the TGI (KM12 colon) was 23500 nM and 24300 nM, the GI50 (SNB-75 CNS) was 289 nM and the TGI (SNB-75 CNS) was 50000 nM. The GI50 (RXF 393 renal) was 2870 nM and 778 nM, the TGI (RXF 393 renal) was 17500 nM and 9160 nM and the GI50 (T-47D breast) was 222 nM and 314 nM. For the same compound, the TGI (T-47D breast) was 50000 nM and 18000 nM, the GI50 (NCI-H226 lung) was 272 nM and 368 nM and the TGI (NCI-H226 lung) was 40500 nM and 7750 nM. The GI50 (OVCAR-3 ovarian) was 360 nM and 312 nM, the TGI (OVCAR-3 ovarian) was 44900 nM and 13200 nM and the GI50 (NCI-H23 lung) was 228 nM. For the same compound, the TGI (NCI-H23 lung) was 39400 nM, the GI50 (LOX IMVI melanoma) was 131 nM and 425 nM and the TGI (LOX IMVI melanoma) was 6950 nM and 24400 nM. The GI50 (SK-MEL-5 melanoma) was 199 nM and 397 nM and the TGI (SK-MEL-5 melanoma) was 7290 nM and 7900 nM.
